# Measured values from ChEMBL document CHEMBL1149371, “A strategy for the design of selective RNA binding agents. Preparation and RRE RNA binding affinities of a neomycin-peptide nucleic acid heteroconjugate library” (Bioorg Med Chem Lett, 2006).
# Tests used:
# tRNA = test: Binding affinity to tRNA
# [1] = test system: Rev responsive element (RRE) RNA; test: Discrimination factor, Kd for tRNA/Kd for Rev response element RNA; type: nucleic-acid assay
# [2] = biological target: Rev responsive element (RRE) RNA; test: Binding affinity to Rev response element RNA; type: nucleic-acid assay
# [3] = biological target: Rev responsive element (RRE) RNA; test: Inhibition of Rev binding to Rev response element RNA in presence of competitor RNA; type: nucleic-acid assay
# [4] = biological target: Rev responsive element (RRE) RNA; test: Inhibition of Rev binding to Rev response element RNA in absence of competitor RNA; type: nucleic-acid assay
# [5] = test system: Rev responsive element (RRE) RNA; test: Ratio of inhibition of Rev binding to Rev response element RNA in presence to absence of competitor RNA; type: nucleic-acid assay
Compound,Kd (tRNA) [nM],Ratio [1],Kd [2] [nM],also measured
NC[C@@H]1O[C@H](O[C@H]2[C@@H](O)[C@H](O[C@@H]3[C@@H](O)[C@H](N)C[C@H](N)[C@H]3O[C@H]3O[C@H](CN)[C@@H](O)[C@H](O)[C@H]3N)O[C@@H]2CSCCCCCCSCC(=O)NCCN(CC(=O)NCCN(CC(N)=O)C(=O)Cn2ccc(N)nc2=O)C(=O)Cn2ccc(N)nc2=O)[C@H](N)[C@@H](O)[C@@H]1O,,,430,
CC(=O)N(CCNC(=O)CSCCCCCCSC[C@H]1O[C@@H](O[C@@H]2[C@@H](O)[C@H](N)C[C@H](N)[C@H]2O[C@H]2O[C@H](CN)[C@@H](O)[C@H](O)[C@H]2N)[C@H](O)[C@@H]1O[C@H]1O[C@@H](CN)[C@@H](O)[C@H](O)[C@H]1N)CC(=O)NCCN(CC(N)=O)C(=O)Cn1ccc(N)nc1=O,,,320,
NC[C@@H]1O[C@H](O[C@H]2[C@@H](O)[C@H](O[C@@H]3[C@@H](O)[C@H](N)C[C@H](N)[C@H]3O[C@H]3O[C@H](CN)[C@@H](O)[C@H](O)[C@H]3N)O[C@@H]2CSCCCCCCSCC(=O)NCCN(CC(=O)NCCN(CC(N)=O)C(=O)Cn2cnc3c(N)ncnc32)C(=O)Cn2cnc3c(O)nc(N)nc32)[C@H](N)[C@@H](O)[C@@H]1O,,,200,
Cc1cn(CC(=O)N(CCNC(=O)CN(CCNC(=O)CSCCCCCCSC[C@H]2O[C@@H](O[C@@H]3[C@@H](O)[C@H](N)C[C@H](N)[C@H]3O[C@H]3O[C@H](CN)[C@@H](O)[C@H](O)[C@H]3N)[C@H](O)[C@@H]2O[C@H]2O[C@@H](CN)[C@@H](O)[C@H](O)[C@H]2N)C(=O)Cn2cnc3c(N)ncnc32)CC(N)=O)c(=O)[nH]c1=O,,,250,
CC(=O)N(CCNC(=O)CSCCCCCCSC[C@H]1O[C@@H](O[C@@H]2[C@@H](O)[C@H](N)C[C@H](N)[C@H]2O[C@H]2O[C@H](CN)[C@@H](O)[C@H](O)[C@H]2N)[C@H](O)[C@@H]1O[C@H]1O[C@@H](CN)[C@@H](O)[C@H](O)[C@H]1N)CC(=O)NCCN(CC(N)=O)C(=O)Cn1cc(C)c(=O)[nH]c1=O,,,270,
Cc1cn(CC(=O)N(CCNC(=O)CSCCCCCCSC[C@H]2O[C@@H](O[C@@H]3[C@@H](O)[C@H](N)C[C@H](N)[C@H]3O[C@H]3O[C@H](CN)[C@@H](O)[C@H](O)[C@H]3N)[C@H](O)[C@@H]2O[C@H]2O[C@@H](CN)[C@@H](O)[C@H](O)[C@H]2N)CC(=O)NCCN(CC(N)=O)C(=O)Cn2ccc(N)nc2=O)c(=O)[nH]c1=O,,,360,
NC[C@@H]1O[C@H](O[C@H]2[C@@H](O)[C@H](O[C@@H]3[C@@H](O)[C@H](N)C[C@H](N)[C@H]3O[C@H]3O[C@H](CN)[C@@H](O)[C@H](O)[C@H]3N)O[C@@H]2CSCCCCCCSCC(=O)NCCN(CC(=O)NCCN(CC(N)=O)C(=O)Cn2cnc3c(O)nc(N)nc32)C(=O)Cn2ccc(N)nc2=O)[C@H](N)[C@@H](O)[C@@H]1O,,,170,
NC[C@@H]1O[C@H](O[C@H]2[C@@H](O)[C@H](O[C@@H]3[C@@H](O)[C@H](N)C[C@H](N)[C@H]3O[C@H]3O[C@H](CN)[C@@H](O)[C@H](O)[C@H]3N)O[C@@H]2CSCCCCCCSCC(=O)NCCN(CC(=O)NCCN(CC(N)=O)C(=O)Cn2ccc(N)nc2=O)C(=O)Cn2cnc3c(O)nc(N)nc32)[C@H](N)[C@@H](O)[C@@H]1O,,,240,
NC[C@@H]1O[C@H](O[C@H]2[C@@H](O)[C@H](O[C@@H]3[C@@H](O)[C@H](N)C[C@H](N)[C@H]3O[C@H]3O[C@H](CN)[C@@H](O)[C@H](O)[C@H]3N)O[C@@H]2CSCCNc2c3ccccc3nc3ccccc23)[C@H](N)[C@@H](O)[C@@H]1O,,,,IC50 [3]: 9800 nM; IC50 [4]: 500 nM
NC[C@@H]1O[C@H](O[C@H]2[C@@H](O)[C@H](O[C@@H]3[C@@H](O)[C@H](N)C[C@H](N)[C@H]3O[C@H]3O[C@H](CN)[C@@H](O)[C@H](O)[C@H]3N)O[C@@H]2CO)[C@H](N)[C@@H](O)[C@@H]1O [FRAMYCETIN],,,180,
Cc1cn(CC(=O)N(CCNC(=O)CN(CCNC(=O)CSCCCCCCSC[C@H]2O[C@@H](O[C@@H]3[C@@H](O)[C@H](N)C[C@H](N)[C@H]3O[C@H]3O[C@H](CN)[C@@H](O)[C@H](O)[C@H]3N)[C@H](O)[C@@H]2O[C@H]2O[C@@H](CN)[C@@H](O)[C@H](O)[C@H]2N)C(=O)Cn2cc(C)c(=O)[nH]c2=O)CC(N)=O)c(=O)[nH]c1=O,,,130,

# Further molecules by falling Kd [2], results first:
Kd (tRNA) [nM],Ratio [1],Kd [2] [nM],Compound,also measured
,,130,CC(=O)N(CCNC(=O)CSCCCCCCSC[C@H]1O[C@@H](O[C@@H]2[C@@H](O)[C@H](N)C[C@H](N)[C@H]2O[C@H]2O[C@H](CN)[C@@H](O)[C@H](O)[C@H]2N)[C@H](O)[C@@H]1O[C@H]1O[C@@H](CN)[C@@H](O)[C@H](O)[C@H]1N)CC(=O)NCCN(CC(N)=O)C(=O)Cn1cnc2c(O)nc(N)nc21,
,,130,NC[C@@H]1O[C@H](O[C@H]2[C@@H](O)[C@H](O[C@@H]3[C@@H](O)[C@H](N)C[C@H](N)[C@H]3O[C@H]3O[C@H](CN)[C@@H](O)[C@H](O)[C@H]3N)O[C@@H]2CSCCCCCCSCC(=O)NCCN(CC(=O)NCCN(CC(N)=O)C(=O)Cn2cnc3c(N)ncnc32)C(=O)Cn2ccc(N)nc2=O)[C@H](N)[C@@H](O)[C@@H]1O,
,,110,Cc1cn(CC(=O)N(CCNC(=O)CN(CCNC(=O)CSCCCCCCSC[C@H]2O[C@@H](O[C@@H]3[C@@H](O)[C@H](N)C[C@H](N)[C@H]3O[C@H]3O[C@H](CN)[C@@H](O)[C@H](O)[C@H]3N)[C@H](O)[C@@H]2O[C@H]2O[C@@H](CN)[C@@H](O)[C@H](O)[C@H]2N)C(=O)Cn2ccc(N)nc2=O)CC(N)=O)c(=O)[nH]c1=O,
220,2.4,93,Cc1cn(CC(=O)N(CCNC(=O)CN(CCNC(=O)CSCCCCCCSC[C@H]2O[C@@H](O[C@@H]3[C@@H](O)[C@H](N)C[C@H](N)[C@H]3O[C@H]3O[C@H](CN)[C@@H](O)[C@H](O)[C@H]3N)[C@H](O)[C@@H]2O[C@H]2O[C@@H](CN)[C@@H](O)[C@H](O)[C@H]2N)C(=O)Cn2cnc3c(O)nc(N)nc32)CC(N)=O)c(=O)[nH]c1=O,
230,3.2,71,Cc1cn(CC(=O)N(CCNC(=O)CSCCCCCCSC[C@H]2O[C@@H](O[C@@H]3[C@@H](O)[C@H](N)C[C@H](N)[C@H]3O[C@H]3O[C@H](CN)[C@@H](O)[C@H](O)[C@H]3N)[C@H](O)[C@@H]2O[C@H]2O[C@@H](CN)[C@@H](O)[C@H](O)[C@H]2N)CC(=O)NCCN(CC(N)=O)C(=O)Cn2cnc3c(N)ncnc32)c(=O)[nH]c1=O,
410,7.1,58,NC[C@@H]1O[C@H](O[C@H]2[C@@H](O)[C@H](O[C@@H]3[C@@H](O)[C@H](N)C[C@H](N)[C@H]3O[C@H]3O[C@H](CN)[C@@H](O)[C@H](O)[C@H]3N)O[C@@H]2CSCCCCCCSCC(=O)NCCN(CC(=O)NCCN(CC(N)=O)C(=O)Cn2cnc3c(N)ncnc32)C(=O)Cn2cnc3c(N)ncnc32)[C@H](N)[C@@H](O)[C@@H]1O,Ratio [5]: 1.2; IC50 [3]: 68000 nM; IC50 [4]: 55000 nM
76,1.5,51,NC[C@@H]1O[C@H](O[C@H]2[C@@H](O)[C@H](O[C@@H]3[C@@H](O)[C@H](N)C[C@H](N)[C@H]3O[C@H]3O[C@H](CN)[C@@H](O)[C@H](O)[C@H]3N)O[C@@H]2CSCCCCCCSCC(=O)NCCN(CC(=O)NCCN(CC(N)=O)C(=O)Cn2ccc(N)nc2=O)C(=O)Cn2cnc3c(N)ncnc32)[C@H](N)[C@@H](O)[C@@H]1O,
170,4.5,38,NC[C@@H]1O[C@H](O[C@H]2[C@@H](O)[C@H](O[C@@H]3[C@@H](O)[C@H](N)C[C@H](N)[C@H]3O[C@H]3O[C@H](CN)[C@@H](O)[C@H](O)[C@H]3N)O[C@@H]2CSCCCCCCSCC(=O)NCCN(CC(=O)NCCN(CC(N)=O)C(=O)Cn2cnc3c(O)nc(N)nc32)C(=O)Cn2cnc3c(N)ncnc32)[C@H](N)[C@@H](O)[C@@H]1O,
210,7,30,NC[C@@H]1O[C@H](O[C@H]2[C@@H](O)[C@H](O[C@@H]3[C@@H](O)[C@H](N)C[C@H](N)[C@H]3O[C@H]3O[C@H](CN)[C@@H](O)[C@H](O)[C@H]3N)O[C@@H]2CSCCCCCCSCC(=O)NCCN(CC(=O)NCCN(CC(N)=O)C(=O)Cn2cnc3c(O)nc(N)nc32)C(=O)Cn2cnc3c(O)nc(N)nc32)[C@H](N)[C@@H](O)[C@@H]1O,Ratio [5]: 1.4; IC50 [3]: 45000 nM; IC50 [4]: 32000 nM
